Experimental data taken from US9469854B2, “Pharmaceutical composition for treating liver diseases” (Academia Sinica, priority 2014, dated 2016).

Tests used:
miR-21-3p = assay: qRT-PCR microRNA assay in primary human hepatocytes; format: cell-based; conditions: PHHs, 40 μM berberine, 2 h
Experimental: The primary human hepatocytes from Caucasian donors were purchased from Invitrogen and cultured following the manufacturer's instructions. The hepatocytes were thawed and transferred into cryopreserved hepatocytes recovery medium (CM7000, Invitrogen), centrifuging at room temperature, 100×g for 10 min. Then, the hepatocytes were diluted to seeding density with plating medium (CM3000, Invitrogen) and added into collagen I-coated plates (Invitrogen). These plates were incubated at 37° C. for 4-6 hours under 5% CO2 for forming a monolayer. Then, plating medium was replaced by overlay incubation medium (CM4000 and 0.35 mg/mL Geltrex™ Matrix, Invitrogen), and the incubation medium was replaced daily. In the following examples, hepatocytes form 3 to 4 donors were used for experiments. A 50 mM stock solution of berberine chloride (Sigma-Aldrich) was prepared in dimethyl sulfoxide (DMSO). Cells were treated with 40 μM of berberine chloride or 0.08% DMSO as the control. For induction of lipid droplets formation in cultured cells, 200 μM of oleic acid (Sigma-Aldrich) was added into the culture medium for 24 h. Total RNA was extracted using a TRIZOL reagent (Invitrogen) according to the manufacturer's protocol. The total RNA quantity was measured using a NanoDrop ND-1000 spectrophotometer (Nanodrop Technologies). […]

intracellular SAM = assay: Measurement of intracellular SAM concentration in HepG2 cells; format: cell-based, human
Experimental: […] The intracellular SAM of 5×10^4 HepG2 cells pellet was resuspended in […] of an extraction solution (0.2% perchloric acid plus 0.08% (v/v) 2-mercaptoethanol in ddH2O). Cells were incubated at room temperature for 1 h and vortexed every 5 min. The suspension was centrifuged at 4° C. at 10000×g for 5 min, and then the supernatant was collected. SAM levels in the supernatants were quantified using the Bridge-It SAM fluorescence assay kit (Mediomics) and detected using SpectraMax plate reader (Molecular Devices) according to the manufacturer's instructions.

MAT2A 3′ UTR = assay: Dual luciferase reporter assay in HEK 293T cells; format: cell-based, human
Experimental: (§1) Full-length 3′ UTRs of MAT2A and MAT2B were amplified from the genomic DNA of HepG2 cells through PCR.
(§2) The PCR products were then cloned into the pMIR-REPORT Luciferase miRNA Expression Reporter Vector (Invitrogen), and all inserted sequences in the 3′ UTR constructs were checked using the ABI PRISM DNA sequencer.
(§3) The mutagenesis of the target sequences of hsa-miR-21-3p in MAT2A and MAT2B 3′ UTRs was performed using the QuikChange site-directed mutagenesis kit (Agilent) according to the manufacturer's standard protocol.
(§4) All mutated sequences, including Site 1, Site 2 and the double mutation of the MAT2A and the 3′ UTR mutant construct of MAT2B, were checked through DNA sequencing.
(§5) The HEK-293T and HepG2 cells were seeded at a density of 5×10^4 cells per well in a 24-well culture plate the day before transfection. The HEK-293T and HepG2 cells were tri-transfected with (1) any one of the above-mentioned pMIR-REPORT-3′ UTR construction (300 ng), (2) the control Renilla luciferase reporter plasmid pRL-TK from Promega (10 ng), and (3) 50 nM of hsa-miR-21-3p mimic or negative-control mimic by using the Lipofectamine 2000 transfection reagent (Invitrogen) according to the manufacturer's instructions. Luciferase assays were performed after transfection for 48 h by using the Dual Luciferase reporter assay kit (Promega) and the Paradigm detection platform (Beckman) according to the manufacturer's protocol. The firefly luciferase activity was normalized relative to the Renilla luciferase activity.

MAT2B 3′ UTR = assay: Dual luciferase reporter assay in HEK 293T cells; format: cell-based, human
Experimental: as §1, §2, §3, §4, §5

HepG2 cells = assay: Apoptosis (sub-G1 population) by flow cytometry with PI staining; format: cell-based, human; conditions: HepG2, 50 nM mimic transfection 72 h vs NC mimic
Experimental: After transfection with 50 nM of hsa-miR-21-3p mimic or the negative-control mimic for 72 h, the HepG2 cells were trypsinized and counted. Apoptosis was detected by measuring the sub-G1 population by using flow cytometry with propidium iodide (PI) staining. In brief, the cells were fixed in 70% ethanol on ice for 15 min, and stained with the PI staining solution (20 μg/mL PI, 0.1% Triton-X 100, and 0.2 mg/mL RNase A in PBS) for 30 min at room temperature and analyzed using CyAn ADP (Beckman Coulter) flow cytometry with Summit software.

[1] = test system: intracellular malonyl-CoA; assay: Measurement of intracellular malonyl-CoA concentration in HepG2 cells; format: cell-based, human; conditions: HepG2, 72-h mimic transfection
Experimental: After transfection with 50 nM of miR-21-3p mimic or the negative-control mimic for 72 h, the PHH cells and HepG2 cells were trypsinized. The intracellular malonyl-CoA concentration was measured using the malonyl-CoA ELISA Kit (MyBioSource) according to the manufacturer's instructions.

3′ UTR sequence of DGAT2 = assay: Reporter examination of miR-21-3p and DGAT2 3′ UTR (technology similar to Example 6); format: cell-based, human
Experimental: as §5

ACACA mRNA = assay: mRNA stability assay; format: cell-based, human
[2] = wild-type 3′ UTR, 50 nM mimic, 48 h

`COc1ccc2cc3[n+](cc2c1OC)CCc1cc2c(cc1-3)OCO2` [berberine] was tested, and the “miR-21-3p expression (qRT-PCR)” value (miR-21-3p) was “up-regulation”.

In the case of “hsa-miR-21-3p (CAACACCAGUCGAUGGGCUGU; listed as RNA, chemistry not given here) [miR-21-3p mimic]”, the “intracellular SAM contents increase” value (intracellular SAM; HepG2, mimic transfection 48 h vs NC mimic) is reported as 1.6 fold, the “intracellular SAM contents increase” value (intracellular SAM; HepG2, mimic transfection 72 h vs NC mimic) is reported as 3.0 fold and the “luciferase reporter expression decrease, Site 1 mutated MAT2A 3′ UTR” value (MAT2A 3′ UTR; Site 1 (+180-200) mutated) is reported as 1.5 fold. The “luciferase reporter expression decrease, MAT2A 3′ UTR” value (MAT2A 3′ UTR; [2]) was 1.6 fold, the “luciferase reporter expression change, mutated MAT2B 3′ UTR” value (MAT2B 3′ UTR; seed match (+399-418) mutated) was “remained unchanged” and the “luciferase reporter expression decrease, MAT2B 3′ UTR” value (MAT2B 3′ UTR; [2]) was 2.3 fold. The “apoptosis (sub-G1 population)” value (HepG2 cells) was “induced apoptosis”, the “intracellular malonyl-CoA concentration decrease” value [1] was 1.6 fold and the “suppression of DGAT2 expression by pairing with 3′ UTR” value (3′ UTR sequence of DGAT2) was 1.4 fold. The “half-life of ACACA mRNA” value (ACACA mRNA) was “reduced the half-life of ACACA mRNA”.
